The values below come from paper PMC11571054, “Unveiling the GT114 family: Structural characterization of A075L, a glycosyltransferase from Paramecium bursaria chlorella virus‐1 (PBCV‐1)” (Protein Science : A Publication of the Protein Society, 2024).

For orientation: Kd means a measure of binding affinity in units of concentration. Higher therefore signals lower affinity.

In assay [1] the target is T1, A075L (Paramecium bursaria Chlorella virus 1, UniProt Q89410).
T1 construct: recombinant in E. coli BL21 Gold (SeMet in B834); GST tag cut with PreScission protease; GST kept only for mutant D73A
T1 sequence (Q89410 1-280): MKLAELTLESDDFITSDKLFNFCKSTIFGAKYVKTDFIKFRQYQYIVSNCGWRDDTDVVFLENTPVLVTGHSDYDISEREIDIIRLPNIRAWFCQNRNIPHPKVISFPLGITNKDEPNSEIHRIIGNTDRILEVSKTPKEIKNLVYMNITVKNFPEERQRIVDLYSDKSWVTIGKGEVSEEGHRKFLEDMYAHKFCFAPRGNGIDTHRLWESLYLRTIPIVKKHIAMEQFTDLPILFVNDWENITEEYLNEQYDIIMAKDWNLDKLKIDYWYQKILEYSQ
Nature of the assay: STD-NMR. The assay is classed as binding. To be noted: 1:40 enzyme-acceptor ratio; 25 °C; binds but is not glycosylated.

Assay [2] deals with T1, A075L. Description: ITC. The assay is classed as binding.

With `CCCCCCCCO[C@@H]1O[C@@H](C)[C@@H](O)[C@@H](O)[C@@H]1O[C@H]1O[C@H](CO)[C@H](O)[C@H](O)[C@H]1O` [compound 5, α‐D‐Gal‐(1 → 2)‐α‐L‐Fuc‐Octyl], the STD-NMR entry in assay [1] is “despite their lower reactivity, both disaccharides can be accommodated in the binding site”.

Turning to `O=c1ccn([C@@H]2O[C@H](COP(=O)(O)OP(=O)(O)O[C@H]3OC[C@@H](O)[C@H](O)[C@H]3O)[C@@H](O)[C@H]2O)c(=O)[nH]1` [compound 1, UDP‐α‐D‐Xyl], in assay [2], the Kd was 31 µM.
